Measured values from patent publication US11111245B2, “Derivatives of N-cycloalkyl/heterocycloalkyl-4-(imidazo[1,2-a]pyridine)pyrimidin-2-amine as therapeutic agents” (Aucentra Therapeutics Pty Ltd, priority 2017, dated 2021).

How the values were obtained:
CDK4/D1 = CDK4/D1 (Homo sapiens, UniProt P11802); assay: ADP Glo Kinase assay CDK4/D1; assay type: biochemical; conditions: CDK4D1; compound at 10 μM; read-out: residual activity (%) at 10 μM CDK4D1
How it was run: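 Compounds tested at 10 concentrations (10 μM to 0.5 nM, 1:3 steps) against CDK4/D1 or CDK6/D3, RB-CTF substrate, Tris pH 7.5 buffer with MgCl2, DTT and BSA.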

CDK6/D3 = CDK6/D3 (Homo sapiens, UniProt Q00534); assay: ADP Glo Kinase assay CDK6/D3; assay type: biochemical; conditions: CDK6D3; compound at 10 μM; read-out: residual activity (%) at 10 μM CDK6D3
Description: Eurofins Pharma Discovery or Reaction Biology Corporation Kinase Profiler services were used to measure inhibition of CDKs and other kinases by radiometric assay. Inhibition of CDK4/D1, CDK6/D3 and CDK9/T1 were also determined in-house using ADP Glo Kinase assays (Promega Corporation, Madison, USA). Briefly, the kinase reaction for CDK4/D1 and CDK6/D3 was performed with kinase reaction buffer ([…] Tris base pH 7.5, 20 mM MgCl2, 0.4 mM DTT), 0.1 mg/ml BSA and RB-CTF substrate (retinoblastoma protein 1 C-terminal fraction). For CDK9/CyclinT1, the kinase reaction was performed with standard assay buffer and Kinase Dilution Buffer and RBER-IRStide substrate. Serial dilutions of 1:3 were prepared for test compounds for 10 concentrations (from 10 μM to 0.5 nM). The kinase reactions were started by addition of ATP, incubated for 40 min at 37° C. and then stopped by adding 10 μL of ADP Glo reagent. After incubation at room temperature in the dark for 40 min, 20 μL of kinase detection reagent was added per well and incubated for 40 min. Luminescence was measured using an EnVision Multilabel plate reader (PerkinElmer, Buckinghamshire, UK). Positive and negative controls were performed in the presence and absence of CDK kinases, respectively. Half-maximal inhibition (IC50) values were calculated using a 4-parameter logistic non-linear regression model with Graphpad prism (Version 6.0). Apparent inhibition constants (Ki) values were calculated from Km (ATP) and IC50 values for the respective kinases.

CDK9/T1 = CDK9/T1 (Homo sapiens, UniProt P50750); assay: ADP Glo Kinase assay CDK9/T1; assay type: biochemical; conditions: CDK9T1; read-out: CDK inhibition, Ki (μM) CDK9T1
How it was run: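 ADP Glo luminescence, in-house: CDK4/D1, CDK6/D3 on RB-CTF substrate (Tris pH 7.5, MgCl2, DTT, BSA); CDK9/T1 on RBER-IRStide. Reaction 40 min, 37° C after ATP addition. 10-point 1:3 series, 10 μM to 0.5 nM. IC50 by 4-parameter logistic; Ki derived using ATP Km.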

CDKs and other kinases [1] = target: T1, CDKs and other kinases (Homo sapiens, UniProt P06493); assay: Radiometric kinase assay (Eurofins Pharma Discovery or Reaction Biology Corporation Kinase Profiler); assay type: biochemical; conditions: CDK1B; for Ki: read-out: CDK inhibition, Ki (μM) CDK1B; for remaining activity at 10 µM: compound at 10 μM, read-out: residual activity (%) at 10 μM CDK1B
T1 construct: other: CDK1B; residual activity (%) at 10 μM CDK1B; compound at 10 μM
How it was run: (§1)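 Other CDKs and further kinases were profiled externally by radiometric assay. In-house ADP Glo assays covered CDK4/D1 and CDK6/D3 (RB-CTF substrate, pH 7.5 Tris buffer with MgCl2, DTT, BSA) and CDK9/T1 (RBER-IRStide substrate), 40 min at 37° C.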

CDKs and other kinases [2] = target: T2, CDKs and other kinases (Homo sapiens, UniProt P24941); assay: as above; assay type: biochemical; conditions: CDK2A; for Ki: read-out: CDK inhibition, Ki (μM) CDK2A; for remaining activity at 10 µM: compound at 10 μM, read-out: residual activity (%) at 10 μM CDK2A
T2 construct: other: CDK2A; residual activity (%) at 10 μM CDK2A; compound at 10 μM
How it was run: as §1

CDKs and other kinases [3] = target: T3, CDKs and other kinases (Homo sapiens, UniProt P50613); assay: as above; assay type: biochemical; conditions: CDK7H; for Ki: read-out: CDK inhibition, Ki (μM) CDK7H
T3 construct: other: CDK7H; residual activity (%) at 10 μM CDK7H; compound at 10 μM
How it was run: as §1

leukemia cell lines = assay: Resazurin cell viability assay on leukemia cell lines (72 h growth inhibition, GI50); assay type: cell-based; conditions: Homo sapiens, MV4-11 cells
How it was run: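 GI50 values from non-linear regression of growth inhibition; read-out was MTT for solid tumour cells, resazurin for leukaemia cells.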

Chain of CDK9/T1 (P50750 whole entry): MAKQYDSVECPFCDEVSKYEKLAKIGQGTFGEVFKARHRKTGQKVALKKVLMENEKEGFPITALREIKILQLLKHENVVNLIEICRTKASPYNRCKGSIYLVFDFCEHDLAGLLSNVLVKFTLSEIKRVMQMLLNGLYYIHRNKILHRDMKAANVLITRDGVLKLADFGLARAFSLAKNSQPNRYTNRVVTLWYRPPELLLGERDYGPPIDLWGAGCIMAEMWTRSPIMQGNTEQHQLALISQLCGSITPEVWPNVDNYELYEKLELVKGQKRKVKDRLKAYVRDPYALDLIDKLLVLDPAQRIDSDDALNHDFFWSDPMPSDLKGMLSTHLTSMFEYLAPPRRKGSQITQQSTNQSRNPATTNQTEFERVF
Chain of CDK9/T1 (O60563 whole entry partner): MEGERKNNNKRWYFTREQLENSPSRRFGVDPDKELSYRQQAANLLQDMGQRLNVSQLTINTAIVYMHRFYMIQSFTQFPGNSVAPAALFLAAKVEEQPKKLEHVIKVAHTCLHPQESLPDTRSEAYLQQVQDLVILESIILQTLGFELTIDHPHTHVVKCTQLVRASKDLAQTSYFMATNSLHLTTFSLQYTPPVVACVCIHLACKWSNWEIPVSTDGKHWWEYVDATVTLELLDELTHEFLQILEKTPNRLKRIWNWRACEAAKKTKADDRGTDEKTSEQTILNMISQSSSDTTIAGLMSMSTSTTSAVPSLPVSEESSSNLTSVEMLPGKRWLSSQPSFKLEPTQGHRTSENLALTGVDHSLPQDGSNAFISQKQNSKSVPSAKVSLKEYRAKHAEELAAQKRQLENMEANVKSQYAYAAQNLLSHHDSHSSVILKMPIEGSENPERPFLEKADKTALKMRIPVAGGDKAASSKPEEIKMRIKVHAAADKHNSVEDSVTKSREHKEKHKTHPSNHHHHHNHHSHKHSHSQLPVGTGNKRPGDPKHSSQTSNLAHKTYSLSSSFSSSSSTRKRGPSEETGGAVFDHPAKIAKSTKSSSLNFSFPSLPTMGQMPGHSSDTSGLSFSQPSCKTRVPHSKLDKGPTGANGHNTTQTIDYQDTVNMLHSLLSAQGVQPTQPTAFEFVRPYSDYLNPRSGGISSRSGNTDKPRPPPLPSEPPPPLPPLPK
T1 sequence (P06493 whole entry): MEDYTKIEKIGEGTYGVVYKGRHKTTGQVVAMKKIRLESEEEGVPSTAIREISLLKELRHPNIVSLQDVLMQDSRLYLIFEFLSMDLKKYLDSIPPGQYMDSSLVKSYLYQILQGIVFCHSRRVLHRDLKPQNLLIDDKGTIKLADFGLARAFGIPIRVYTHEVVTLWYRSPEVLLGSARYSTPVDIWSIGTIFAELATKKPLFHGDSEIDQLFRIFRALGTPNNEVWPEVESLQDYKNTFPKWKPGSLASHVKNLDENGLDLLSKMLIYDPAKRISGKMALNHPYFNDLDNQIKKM
Chain of CDK6/D3 (Q00534 whole entry): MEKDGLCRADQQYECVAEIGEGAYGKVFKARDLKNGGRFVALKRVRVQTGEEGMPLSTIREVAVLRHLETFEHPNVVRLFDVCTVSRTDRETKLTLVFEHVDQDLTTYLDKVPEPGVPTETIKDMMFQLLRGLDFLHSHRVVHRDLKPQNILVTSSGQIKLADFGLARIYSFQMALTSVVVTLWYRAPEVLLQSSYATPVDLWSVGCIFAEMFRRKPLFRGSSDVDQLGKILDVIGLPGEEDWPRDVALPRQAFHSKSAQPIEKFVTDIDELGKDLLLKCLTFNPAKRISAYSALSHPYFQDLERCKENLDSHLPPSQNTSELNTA
Chain of CDK6/D3 (P30281 whole entry partner): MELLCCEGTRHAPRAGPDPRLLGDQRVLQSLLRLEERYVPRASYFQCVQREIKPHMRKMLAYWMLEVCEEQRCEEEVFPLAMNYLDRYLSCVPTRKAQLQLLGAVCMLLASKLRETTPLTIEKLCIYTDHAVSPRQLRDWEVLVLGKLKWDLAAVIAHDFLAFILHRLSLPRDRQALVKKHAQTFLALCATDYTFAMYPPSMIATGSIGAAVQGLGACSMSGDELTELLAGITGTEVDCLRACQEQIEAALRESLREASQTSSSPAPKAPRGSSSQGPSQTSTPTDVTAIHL
Chain of CDK4/D1 (P11802 whole entry): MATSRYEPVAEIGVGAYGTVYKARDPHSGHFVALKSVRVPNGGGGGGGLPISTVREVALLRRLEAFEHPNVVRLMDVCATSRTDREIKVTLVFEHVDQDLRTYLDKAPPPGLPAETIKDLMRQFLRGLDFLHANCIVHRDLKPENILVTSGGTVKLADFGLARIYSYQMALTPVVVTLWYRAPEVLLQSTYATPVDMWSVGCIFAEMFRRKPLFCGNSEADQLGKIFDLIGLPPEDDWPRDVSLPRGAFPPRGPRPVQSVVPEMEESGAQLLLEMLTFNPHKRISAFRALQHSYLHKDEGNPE
Chain of CDK4/D1 (P24385 whole entry partner): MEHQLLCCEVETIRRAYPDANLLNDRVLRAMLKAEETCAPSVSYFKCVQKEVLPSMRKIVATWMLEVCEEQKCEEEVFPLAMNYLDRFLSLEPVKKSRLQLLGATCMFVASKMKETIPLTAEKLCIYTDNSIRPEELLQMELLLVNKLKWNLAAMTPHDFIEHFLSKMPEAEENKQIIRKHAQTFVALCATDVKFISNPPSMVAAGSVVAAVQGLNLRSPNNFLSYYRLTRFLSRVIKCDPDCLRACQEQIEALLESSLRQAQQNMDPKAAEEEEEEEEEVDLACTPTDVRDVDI
T3 sequence (P50613 whole entry): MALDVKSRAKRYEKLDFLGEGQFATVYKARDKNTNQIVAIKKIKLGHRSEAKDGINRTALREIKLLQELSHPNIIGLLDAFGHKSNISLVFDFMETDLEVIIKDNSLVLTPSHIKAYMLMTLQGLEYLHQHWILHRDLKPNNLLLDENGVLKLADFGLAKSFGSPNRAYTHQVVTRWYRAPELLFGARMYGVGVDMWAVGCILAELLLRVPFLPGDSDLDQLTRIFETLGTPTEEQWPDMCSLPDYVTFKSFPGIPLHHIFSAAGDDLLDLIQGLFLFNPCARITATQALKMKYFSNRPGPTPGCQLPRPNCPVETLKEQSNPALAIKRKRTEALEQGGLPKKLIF

Row | Compound | remaining activity at 10 µM (CDK4/D1) [%] | remaining activity at 10 µM (CDK6/D3) [%] | Ki (CDK9/T1) [µM] | Ki (CDKs and other kinases [1]) [µM] | Ki (CDKs and other kinases [2]) [µM] | Ki (CDKs and other kinases [3]) [µM] | GI50 (leukemia cell lines) [µM] | remaining activity at 10 µM (CDKs and other kinases [1]) [%] | remaining activity at 10 µM (CDKs and other kinases [2]) [%] | remaining activity at 10 µM (CDKs and other kinases [3]; compound at 10 μM, read-out: residual activity (%) at 10 μM CDK7H) [%]
1 | Cc1cnc(N[C@H]2CC[C@H](N)CC2)nc1-c1cnc2ccccn12 [Compound 8, (1r,4r)-N^1-(4-(Imidazo[1,2-a]pyridin-3-yl)-5-methylpyrimidin-2-yl)cyclohexane-1,4-diamine] | 11 | 34 | 0.035 | 3.81 | 0.35 | 0.38 | 0.066 ± 0.007 |  |  | 
2 | COc1cnc(N[C@H]2CC[C@H](N)CC2)nc1-c1cnc2ccccn12 [Compound 11, (1r,4r)-N^1-(4-(Imidazo[1,2-a]pyridin-3-yl)-5-methoxypyrimidin-2-yl)cyclohexane-1,4-diamine] | 40 | 27 | 0.291 |  |  |  | 0.009 ± 0.001 | 75 | 63 | 26
3 | CS(=O)(=O)N[C@H]1CC[C@H](Nc2ncc(Cl)c(-c3cnc4ccc(Br)cn34)n2)CC1 [Compound 17, N-((1r,4r)-4-((4-(6-Bromoimidazo[1,2-a]pyridin-3-yl)-5-chloropyrimidin-2-yl)amino)cyclohexyl) methanesulfonamide] | 1 | 26 | 0.062 | 0.004 | 0.0004 | 0.001 | < 0.001 |  |  | 
4 | CS(=O)(=O)N[C@H]1CC[C@H](Nc2ncc(Cl)c(-c3cnc4c(Br)cc(C(F)(F)F)cn34)n2)CC1 [Compound 18, N-((1r,4r)-4-((4-(8-Bromo-6-(trifluoromethyl)imidazo [1,2-a]pyridin-3-yl)-5-chloropyrimidin-2-yl)amino)cyclohexyl)methanesulfonamide] | 9 | 41 | 0.148 | 0.028 | 0.007 | 0.001 | 6.11 ± 1.14 |  |  | 
5 | Fc1cnc(NC2CCN(CC3CC3)CC2)nc1-c1cnc2ccccn12 [Compound 22, N-(1-(Cyclopropylmethyl)piperidin-4-yl)-5-fluoro-4-(imidazo[1,2-a]pyridin-3-yl)pyrimidin-2-amine] | 2 | 42 | 0.095 | 1.06 | 1.12 | 0.437 | 0.041 ± 0.012 |  |  | 
6 | COC(=O)CN1CCC(Nc2ncc(F)c(-c3cnc4ccccn34)n2)CC1 [Compound 23, Methyl 2-(4-((5-fluoro-4-(imidazo[1,2-a]pyridin-3-yl)pyrimidin-2-yl)amino)piperidin-1-yl)acetate] | 0 | 39 | 0.063 | 0.258 | 0.155 | 0.885 | 0.28 ± 0.049 |  |  | 
7 | CS(=O)(=O)N1CCC(Nc2ncc(F)c(-c3cnc4ccccn34)n2)CC1 [Compound 24, 5-Fluoro-4-(imidazo[1,2-a]pyridin-3-yl)-N-(1-(methylsulfonyl)piperidin-4-yl)pyrimidin-2-amine] | -16 | 18 | 0.141 |  |  | 0.281 | 0.506 ± 0.104 | -1 | -1 | 

Compounds with a lower Ki (CDK9/T1), results first:

Row | remaining activity at 10 µM (CDK4/D1) [%] | remaining activity at 10 µM (CDK6/D3) [%] | Ki (CDK9/T1) [µM] | Ki (CDKs and other kinases [1]) [µM] | Ki (CDKs and other kinases [2]) [µM] | Ki (CDKs and other kinases [3]) [µM] | GI50 (leukemia cell lines) [µM] | remaining activity at 10 µM (CDKs and other kinases [1]) [%] | remaining activity at 10 µM (CDKs and other kinases [2]) [%] | remaining activity at 10 µM (CDKs and other kinases [3]; compound at 10 μM, read-out: residual activity (%) at 10 μM CDK7H) [%] | Compound
8 | 0 | 46 | 0.006 | 0.084 | 0.023 | 0.019 | < 0.001 |  |  |  | N[C@H]1CC[C@H](Nc2ncc(F)c(-c3cnc4ccc(C(F)(F)F)cn34)n2)CC1 [Compound 3, (1r,4r)-N^1-(5-Fluoro-4-(6-(trifluoromethyl)imidazo[1,2-a]pyridin-3-yl)pyrimidin-2-yl)cyclohexane-1,4-diamine]
9 | 0 | 16 | 0.002 | 0.014 | 0.006 | 0.075 | 0.003 ± 0.001 |  |  |  | N[C@H]1CC[C@H](Nc2ncc(F)c(-c3cnc4ccc(-c5ccccc5)cn34)n2)CC1 [Compound 5, (1r,4r)-N^1-(5-Fluoro-4-(6-phenylimidazo[1,2-a]pyridin-3-yl)pyrimidin-2-yl)cyclohexane-1,4-diamine]
10 | 11 | 16 | 0.003 | 0.013 | 0.009 | 0.016 | 0.002 ± 0.0005 |  |  |  | N[C@H]1CC[C@H](Nc2ncc(F)c(-c3cnc4ccc(Nc5ccccc5)cn34)n2)CC1 [Compound 6, (1r,4r)-N^1-(5-Fluoro-4-(6-(phenylamino)imidazo[1,2-a]pyridin-3-yl)pyrimidin-2-yl)cyclohexane-1,4-diamine]
11 | 45 | 58 | 0.009 | 0.266 | 0.08 | 0.23 | 0.008 ± 0.002 |  |  |  | Cc1cnc(N[C@H]2CC[C@H](N)CC2)nc1-c1cnc2ccc(C(F)(F)F)cn12 [Compound 9, (1r,4r)-N^1-(5-Methyl-4-(6-(trifluoromethyl)imidazo[1,2-a]pyridin-3-yl)pyrimidin-2-yl)cyclohexane-1,4-diamine]
12 | 4 | 41 | 0.008 | 0.121 | 0.013 | 0.032 | 0.006 ± 0.001 |  |  |  | N[C@H]1CC[C@H](Nc2ncc(Cl)c(-c3cnc4ccc(Br)cn34)n2)CC1 [Compound 12, (1r,4r)-N^1-(4-(6-Bromoimidazo[1,2-a]pyridin-3-yl)-5-chloropyrimidin-2-yl)cyclohexane-1,4-diamine]
13 | 0 | 59 | 0.024 | 0.329 | 0.063 | 0.052 | 0.022 ± 0.002 |  |  |  | N[C@H]1CC[C@H](Nc2ncc(Cl)c(-c3cnc4ccc(C(F)(F)F)cn34)n2)CC1 [Compound 13, (1r,4r)-N^1-(5-Chloro-4-(6-(trifluoromethyl)imidazo[1,2-a]pyridin-3-yl)pyrimidin-2-yl)cyclohexane-1,4-diamine]
14 | 3 | 17 | 0.007 | 0.755 | 0.115 | 0.04 | 0.368 ± 0.129 |  |  |  | N[C@H]1CC[C@H](Nc2ncc(Cl)c(-c3cnc4c(Br)cc(C(F)(F)F)cn34)n2)CC1 [Compound 14, (1r,4r)-N^1-(4-(8-Bromo-6-(trifluoromethyl)imidazo[1,2-a]pyridin-3-yl)-5-chloropyrimidin-2-yl)cyclohexane-1,4-diamine]
15 | 0 | 13 | 0.014 | 0.07 | 0.027 | 0.15 | 0.05 ± 0.009 |  |  |  | COC(=O)CN[C@H]1CC[C@H](Nc2ncc(F)c(-c3cnc4ccccn34)n2)CC1 [Compound 15, Methyl ((1r,4r)-4-((5-fluoro-4-(imidazo[1,2-a]pyridin-3-yl)pyrimidin-2-yl)amino)cyclohexyl)glycinate]
